The source of these data is the supplement of paper PMC10307832.

Test in all cases: relative viability (nuclei count vs DMSO), 5 days (fraction); higher = more cells survive
Compound in the assay “Ibrutinib + Phenformin”: C=CC(=O)N1CCC[C@@H](n2nc(-c3ccc(Oc4ccccc4)cc3)c3c(N)ncnc32)C1 [Ibrutinib] + N=C(N)NC(=N)NCCc1ccccc1 [Phenformin] (partner 250 µM)
The method in brief: (§1)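 Lung cancer cell lines, seeded in 1536-well plates, were treated the following day by pin tool with a single drug or with five library-drug doses (not always all listed) in √10 steps on top of a fixed anchor-drug dose. Cells were fixed and nuclei stained in one step after 5 days, and nuclei were counted. Relative viability is the nuclei count for treated wells divided by that for vehicle wells, reported as medians of duplicate plates.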

Compound in the assay “PAC-1 + Palbociclib”: C=CCc1cccc(/C=N/NC(=O)CN2CCN(Cc3ccccc3)CC2)c1O [PAC-1] + CC(=O)c1c(C)c2cnc(Nc3ccc(N4CCNCC4)cn3)nc2n(C2CCCC2)c1=O [Palbociclib] (partner 0.5 µM)
The method, boiled down:
as §1

Compound in the assay “PAC-1 + Trametinib”: C=CCc1cccc(/C=N/NC(=O)CN2CCN(Cc3ccccc3)CC2)c1O [PAC-1] + CC(=O)Nc1cccc(-n2c(=O)n(C3CC3)c(=O)c3c(Nc4ccc(I)cc4F)n(C)c(=O)c(C)c32)c1 [Trametinib] (partner 0.02 µM)
The method in brief: as §1

Compound in the assay “BMX-IN-1 + Dasatinib”: C=CC(=O)Nc1cc(-n2c(=O)ccc3cnc4ccc(-c5ccc(NS(C)(=O)=O)cc5)cc4c32)ccc1C [BMX-IN-1] + Cc1nc(Nc2ncc(C(=O)Nc3c(C)cccc3Cl)s2)cc(N2CCN(CCO)CC2)n1 [Dasatinib] (partner 0.075 µM)
The method, boiled down: as §1

In the case of SK-MES-1, the relative viability came out at 0.733 with Ibrutinib + Phenformin (first compound 0.005 µM); 0.629 with Ibrutinib + Phenformin (first compound 0.01581 µM); 0.638 in the assay with Ibrutinib + Phenformin (first compound 0.05 µM); 0.704 with Ibrutinib + Phenformin (first compound 0.1581 µM); 0.501 with Ibrutinib + Phenformin (first compound 0.5 µM); 0.336 in the assay with PAC-1 + Palbociclib (first compound 0.02 µM). The relative viability was determined as 0.311 in the assay with PAC-1 + Palbociclib (first compound 0.06325 µM); 0.315 with PAC-1 + Palbociclib (first compound 0.2 µM); 0.308 with PAC-1 + Palbociclib (first compound 2 µM); 0.498 with PAC-1 + Trametinib (first compound 0.02 µM); 0.529 with PAC-1 + Trametinib (first compound 0.06325 µM); 0.543 with PAC-1 + Trametinib (first compound 0.2 µM). Besides, the relative viability in the assay with PAC-1 + Trametinib (first compound 2 µM) amounted to 0.622; in the assay with BMX-IN-1 + Dasatinib (first compound 0.02 µM) it was 0.43; with BMX-IN-1 + Dasatinib (first compound 0.2 µM) it was 0.317; with BMX-IN-1 + Dasatinib (first compound 0.6325 µM) it was 0.337; with BMX-IN-1 + Dasatinib (first compound 2 µM), 0.34.
